Data from US20060094682A1, “Kinase inhibitors for the treatment of diabetes and obesity” (Odyssey Thera, Inc., priority 2004, published 2006).

What was measured:
[1] = system: PPAR-[Gamma]:SRC-1 complexes; assay: PPAR-[Gamma]:SRC-1 fluorescence protein-fragment complementation assay (PCA), drug treatment; assay type: cell-based, human; settings: HEK293 cells; for effect on PPAR-[Gamma]:SRC-1 complex: 10 micromolar PP3 or 1 micromolar PD 153035 for 6.5 hours prior to rosiglitazone for 1.5 hours
Source text: Reporter fragments for PCA were generated by oligonucleotide synthesis (Blue Heron Biotechnology, Bothell, Wash.). First, oligonucleotides coding for polypeptide fragments YFP[1]and YFP[2] […] Next, PCR mutagenesis was used to generate the mutant fragments IFP[1] and IFP[2]. […] The YFP[1], YFP[2], IFP[1] and IFP[2] fragments were amplified by PCR to incorporate restriction sites and a linker sequence, described below, in configurations that would allow fusion of a gene of interest to either the 5′- or 3′-end of each reporter fragment. […] Additionally, these vectors still retain the SV40 origin, allowing for episomal expression in cell lines expressing the SV40 large T antigen (e.g. HEK293T, Jurkat or COS).
Recombinants in the host strains DH5-alpha (Invitrogen, Carlsbad, Calif.) or XL1 Blue MR (Stratagene, La Jolla, Calif.) were screened by colony PCR, and clones containing inserts of the correct size were subjected to end sequencing to confirm the presence of the gene of interest and in-frame fusion to the appropriate reporter fragment. A subset of fusion constructs were selected for full-insert sequencing by primer walking. DNAs were isolated using Qiagen MaxiPrep kits (Qiagen, Chatsworth, Calif.). PCR was used to assess the integrity of each fusion construct, by combining the appropriate gene-specific primer with a reporter-specific primer to confirm that the correct gene-fusion was present and of the correct size with no internal deletions.
HEK293 cells were maintained in MEM alpha medium (Invitrogen) supplemented with 10% FBS (Gemini Bio-Products), 1% penicillin, and 1% streptomycin, and grown in a 37° C. incubator equilibrated to 5% CO2.

Src family kinases = settings: cited from earlier work
human T cells = settings: read-out: IC50 anti-CD3-stimulated tyrosine phosphorylation of human T cells; cited from earlier work
Hck = Hck (Homo sapiens, UniProt P08631); settings: cited from earlier work
Hck, sequence (P08631 whole entry, species assumed): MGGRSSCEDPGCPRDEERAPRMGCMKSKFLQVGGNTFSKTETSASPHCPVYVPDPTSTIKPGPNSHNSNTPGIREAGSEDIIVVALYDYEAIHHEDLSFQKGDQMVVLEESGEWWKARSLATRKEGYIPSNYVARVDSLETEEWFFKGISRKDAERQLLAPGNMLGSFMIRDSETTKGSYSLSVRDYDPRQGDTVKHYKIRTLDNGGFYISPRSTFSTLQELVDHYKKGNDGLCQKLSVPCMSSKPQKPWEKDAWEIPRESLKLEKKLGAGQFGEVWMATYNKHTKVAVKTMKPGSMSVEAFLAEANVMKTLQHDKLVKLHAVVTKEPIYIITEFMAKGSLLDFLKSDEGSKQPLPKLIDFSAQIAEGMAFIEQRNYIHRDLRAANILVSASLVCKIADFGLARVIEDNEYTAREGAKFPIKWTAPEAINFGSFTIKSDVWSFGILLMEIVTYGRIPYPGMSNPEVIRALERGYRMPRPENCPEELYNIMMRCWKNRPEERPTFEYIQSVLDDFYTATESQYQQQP

## Nc1ncnc2c1cnn2-c1ccccc1 [PP3, 4-Amino-7-phenylpyrazol[3,4-d]pyrimidine]
[1]
  effect on PPAR-[Gamma]:SRC-1 complex: no effect
Src family kinases
  activity against Src family kinases: inactive

## COc1cc2ncnc(Nc3cccc(Br)c3)c2cc1OC [PD153035, 4-[(3-Bromophenyl)amino]-6,7-dimethoxyquinazoline]
[1]
  effect on PPAR-[Gamma]:SRC-1 complex: no effect

## 4-amino-5-(4-chlorophenyl)-7-(t-butyl)pyrazolo[3,4-d]pyrimidine [PP2]
Human T cells
  IC50: 600 nM
Hck
  IC50: 5 nM

## CN(CCOc1ccc(CC2SC(=O)NC2=O)cc1)c1ccccn1 (stereo not drawn) [rosiglitazone]
[1]; 15 micromolar rosiglitazone for 90 minutes vs unstimulated
  increase of fluorescence intensity of the PPAR-[Gamma]:SRC-1 PCA: 6 fold
